# Data published in ChEMBL document CHEMBL1201862, “PubChem BioAssay data set” (2004).
#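 How tested: cells in 96-well plates exposed to compound for 48 hours at five concentrations. GI50: concentration for 50% inhibition of growth.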 Activity calls are given as the source filed them. Rule as the data show it: active = GI50 up to about 1.1 µM and inactive = higher.
# How the values were obtained:
# Experiment in all cases: NCI anticancer screen, dose series, 48 h
# 786-0 = tested on: 786-0
# A498 = tested on: A498
# A549 = tested on: A549
# ACHN = tested on: ACHN
# BT-549 = tested on: BT-549
# CAKI-1 = tested on: CAKI-1
# CCRF-CEM = tested on: CCRF-CEM
# COLO 205 = tested on: COLO 205
# DU-145 = tested on: DU-145
# EKVX = tested on: EKVX
# HCC 2998 = tested on: HCC 2998
# HCT-116 = tested on: HCT-116
# HCT-15 = tested on: HCT-15
# HL-60 = tested on: HL-60
# HOP-62 = tested on: HOP-62
# HOP-92 = tested on: HOP-92
# HT-29 = tested on: HT-29
# Hs-578T = tested on: Hs-578T
# IGROV-1 = tested on: IGROV-1
# KM12 = tested on: KM12
# LOX IMVI = tested on: LOX IMVI
# M14 = tested on: M14
# MCF7 = tested on: MCF7
# MDA-MB-231 = tested on: MDA-MB-231
# MDA-MB-435 = tested on: MDA-MB-435
# MDA-N = tested on: MDA-N
# MOLT-4 = tested on: MOLT-4
# Malme-3M = tested on: Malme-3M
# NCI-H226 = tested on: NCI-H226
# NCI-H23 = tested on: NCI-H23
# NCI-H460 = tested on: NCI-H460
# NCI-H522 = tested on: NCI-H522
# NCI/ADR-RES = tested on: NCI/ADR-RES
# OVCAR-3 = tested on: OVCAR-3
# OVCAR-4 = tested on: OVCAR-4
# OVCAR-5 = tested on: OVCAR-5
# OVCAR-8 = tested on: OVCAR-8
# PC-3 = tested on: PC-3
# RPMI-8226 = tested on: RPMI-8226
# RXF 393 = tested on: RXF 393
# SF-268 = tested on: SF-268
# SF-295 = tested on: SF-295
# SF-539 = tested on: SF-539
# SK-MEL-28 = tested on: SK-MEL-28
# SK-MEL-2 = tested on: SK-MEL-2
# SK-MEL-5 = tested on: SK-MEL-5
# SK-OV-3 = tested on: SK-OV-3
# SN12C = tested on: SN12C
# SNB-19 = tested on: SNB-19
# SR = tested on: SR
# SW-620 = tested on: SW-620
# T47D = tested on: T47D
# TK-10 = tested on: TK-10
# U-251 = tested on: U-251
# UACC-257 = tested on: UACC-257
# UACC-62 = tested on: UACC-62
# UO-31 = tested on: UO-31
# K562 = tested on: K562
# SNB-75 = tested on: SNB-75
structure (smiles),measurement,setting,value
CC(C)(C)O/N=C/c1cc(NC(=S)c2ccccc2)ccc1Cl,GI50,786-0,14.3 µM (inactive)
same,GI50,A498,13.6 µM (inactive)
same,GI50,A549,15.7 µM (inactive)
same,GI50,ACHN,16.4 µM (inactive)
same,GI50,BT-549,15.6 µM (inactive)
same,GI50,CAKI-1,29.3 µM (inactive)
same,GI50,CCRF-CEM,23 µM (inactive)
same,GI50,COLO 205,14.3 µM (inactive)
same,GI50,DU-145,17.3 µM (inactive)
same,GI50,EKVX,15.2 µM (inactive)
same,GI50,HCC 2998,11.3 µM (inactive)
same,GI50,HCT-116,12.3 µM (inactive)
same,GI50,HCT-15,15.1 µM
same,GI50,HL-60,16.3 µM (inactive)
same,GI50,HOP-62,13.7 µM (inactive)
same,GI50,HOP-92,14.9 µM (inactive)
same,GI50,HT-29,13.7 µM (inactive)
same,GI50,Hs-578T,22.5 µM (inactive)
same,GI50,IGROV-1,12.1 µM (inactive)
same,GI50,KM12,12.7 µM (inactive)
same,GI50,LOX IMVI,15.7 µM (inactive)
same,GI50,M14,18.6 µM (inactive)
same,GI50,MCF7,22.9 µM (inactive)
same,GI50,MDA-MB-231,21.3 µM (inactive)
same,GI50,MDA-MB-435,27.2 µM (inactive)
same,GI50,MDA-N,14.2 µM (inactive)
same,GI50,MOLT-4,8.71 µM (inactive)
same,GI50,Malme-3M,19 µM (inactive)
same,GI50,NCI-H226,16.8 µM (inactive)
same,GI50,NCI-H23,15.6 µM (inactive)
same,GI50,NCI-H460,6.89 µM (inactive)
same,GI50,NCI-H522,11.3 µM (inactive)
same,GI50,NCI/ADR-RES,15.6 µM (inactive)
same,GI50,OVCAR-3,16.3 µM (inactive)
same,GI50,OVCAR-4,18.3 µM (inactive)
same,GI50,OVCAR-5,23.8 µM (inactive)
same,GI50,OVCAR-8,17.9 µM (inactive)
same,GI50,PC-3,16.4 µM (inactive)
same,GI50,RPMI-8226,11.5 µM (inactive)
same,GI50,RXF 393,12.3 µM (inactive)
same,GI50,SF-268,21.1 µM (inactive)
same,GI50,SF-295,18 µM (inactive)
same,GI50,SF-539,25.7 µM (inactive)
same,GI50,SK-MEL-28,14 µM (inactive)
same,GI50,SK-MEL-2,16.6 µM (inactive)
same,GI50,SK-MEL-5,21 µM (inactive)
same,GI50,SK-OV-3,29.4 µM (inactive)
same,GI50,SN12C,12.2 µM (inactive)
same,GI50,SNB-19,22.4 µM (inactive)
same,GI50,SR,15.1 µM (inactive)
same,GI50,SW-620,18.7 µM (inactive)
same,GI50,T47D,18.9 µM (inactive)
same,GI50,TK-10,12.2 µM (inactive)
same,GI50,U-251,17 µM (inactive)
same,GI50,UACC-257,13.1 µM (inactive)
same,GI50,UACC-62,14.6 µM (inactive)
same,GI50,UO-31,12.8 µM (inactive)
Cc1cccc2c1NC(=S)[C@@H]1CCCN1C2=O,GI50,786-0,> 100 µM (inactive)
same,GI50,A498,> 100 µM (inactive)
same,GI50,A549,> 100 µM (inactive)
same,GI50,ACHN,> 100 µM (inactive)
same,GI50,BT-549,> 100 µM (inactive)
same,GI50,CAKI-1,> 100 µM (inactive)
same,GI50,CCRF-CEM,> 100 µM (inactive)
same,GI50,COLO 205,> 100 µM (inactive)
same,GI50,DU-145,> 100 µM (inactive)
same,GI50,EKVX,> 100 µM (inactive)
same,GI50,HCC 2998,> 100 µM (inactive)
same,GI50,HCT-116,> 100 µM (inactive)
same,GI50,HCT-15,> 100 µM
same,GI50,HOP-62,> 100 µM (inactive)
same,GI50,HOP-92,> 100 µM (inactive)
same,GI50,HT-29,> 100 µM (inactive)
same,GI50,Hs-578T,> 100 µM (inactive)
same,GI50,IGROV-1,> 100 µM (inactive)
same,GI50,K562,> 100 µM (inactive)
same,GI50,KM12,> 100 µM (inactive)
same,GI50,LOX IMVI,> 100 µM (inactive)
same,GI50,M14,> 100 µM (inactive)
same,GI50,MCF7,> 100 µM (inactive)
same,GI50,MDA-MB-231,> 100 µM (inactive)
same,GI50,MDA-MB-435,> 100 µM (inactive)
same,GI50,MDA-N,> 100 µM (inactive)
same,GI50,MOLT-4,> 100 µM (inactive)
same,GI50,Malme-3M,> 100 µM (inactive)
same,GI50,NCI-H226,> 100 µM (inactive)
same,GI50,NCI-H23,> 100 µM (inactive)
same,GI50,NCI-H460,> 100 µM (inactive)
same,GI50,NCI-H522,> 100 µM (inactive)
same,GI50,NCI/ADR-RES,> 100 µM (inactive)
same,GI50,OVCAR-3,> 100 µM (inactive)
same,GI50,OVCAR-4,> 100 µM (inactive)
same,GI50,OVCAR-5,> 100 µM (inactive)
same,GI50,OVCAR-8,> 100 µM (inactive)
same,GI50,PC-3,> 100 µM (inactive)
same,GI50,RPMI-8226,> 100 µM (inactive)
same,GI50,RXF 393,> 100 µM (inactive)
same,GI50,SF-268,> 100 µM (inactive)
same,GI50,SF-295,> 100 µM (inactive)
same,GI50,SF-539,> 100 µM (inactive)
same,GI50,SK-MEL-28,> 100 µM (inactive)
same,GI50,SK-MEL-2,> 100 µM (inactive)
same,GI50,SK-MEL-5,> 100 µM (inactive)
same,GI50,SK-OV-3,> 100 µM (inactive)
same,GI50,SN12C,> 100 µM (inactive)
same,GI50,SNB-19,> 100 µM (inactive)
same,GI50,SNB-75,54 µM (inactive)
same,GI50,SR,> 100 µM (inactive)
same,GI50,SW-620,> 100 µM (inactive)
same,GI50,T47D,> 100 µM (inactive)
same,GI50,TK-10,> 100 µM (inactive)
same,GI50,U-251,> 100 µM (inactive)
same,GI50,UACC-257,> 100 µM (inactive)
same,GI50,UACC-62,> 100 µM (inactive)
same,GI50,UO-31,> 100 µM (inactive)
